In US20040019070A1, “Pyrrole-condensed morphinoid derivatives” (priority 2000, published 2004):

Key:
[1] = molecular target: T1, human delta opioid receptor (Homo sapiens, UniProt P41143); test: radioligand binding assay, [3H]-DADLE, cloned human delta opioid receptor in CHO cells
T1 construct: expressed in transfected cells; membranes prepared
Protocol: The activity of the compounds of the present invention as selective delta ligands is determined in radioligand binding assays as described below.
(§1) The activity of the compounds of the present invention as selective delta ligands is determined in radioligand binding assays using cloned human delta, mu and kappa opioid receptors stably expressed in cell lines as described below.
(§2) CHO cells were subjected to stable transfection with cDNA encoding the human delta and mu opioid receptors. Clones were grown in suspension culture in serum free media. Selection was performed by growth in the absence of nucleotides.
(§3) Membranes were prepared as previously described (J. Med. Chem. 1997, 40, 3192 ). The binding of the preferential delta ligand [^3H]-[D-Ala^2,D-Leu^5]-enkephalin (DADLE) was evaluated at its KD concentration (0.7 nM). The binding of the mu ligand [^3H]-DAMGO (Eur. J. Pharmacol., 1989, 166, 213) and of the kappa ligand [^3H]-U69593 (Excerpta Medica, 1990, 211) were carried out at 0.5 nM. Non specific binding was determined in the presence of 10 uM of naloxone. Binding data were expressed as percentage of inhibition and fitted the following equation: f(x)=100·X/(IC50+X) where X is the cold drug concentration value. The IC50 values obtained were used to calculate the inhibitory constants (Ki) accordingly to the Cheng and Prusoff relation (Biochem. Pharmacol., 1973, 22, 3099).

human mu opioid receptor = molecular target: T2, human mu opioid receptor (Homo sapiens, UniProt P35372); test: radioligand binding assay, [3H]-DAMGO, cloned human mu opioid receptor in CHO cells; conditions: ratio of Ki at mu ([3H]-DAMGO 0.5 nM) to Ki at delta
T2 construct: expressed in transfected cells; membranes prepared
T2 sequence (P35372 whole entry): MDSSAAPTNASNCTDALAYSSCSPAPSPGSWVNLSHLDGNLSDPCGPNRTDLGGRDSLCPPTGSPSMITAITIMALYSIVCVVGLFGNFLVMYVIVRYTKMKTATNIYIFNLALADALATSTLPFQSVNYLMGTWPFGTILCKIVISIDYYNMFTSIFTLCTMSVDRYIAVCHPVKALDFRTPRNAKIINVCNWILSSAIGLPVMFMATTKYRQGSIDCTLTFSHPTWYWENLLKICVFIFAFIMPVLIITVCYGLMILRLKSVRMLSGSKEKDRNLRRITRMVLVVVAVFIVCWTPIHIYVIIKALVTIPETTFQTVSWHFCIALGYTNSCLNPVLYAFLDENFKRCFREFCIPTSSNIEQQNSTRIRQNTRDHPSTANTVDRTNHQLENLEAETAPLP
Protocol: as §1, §2, §3

T1 sequence (P41143 whole entry): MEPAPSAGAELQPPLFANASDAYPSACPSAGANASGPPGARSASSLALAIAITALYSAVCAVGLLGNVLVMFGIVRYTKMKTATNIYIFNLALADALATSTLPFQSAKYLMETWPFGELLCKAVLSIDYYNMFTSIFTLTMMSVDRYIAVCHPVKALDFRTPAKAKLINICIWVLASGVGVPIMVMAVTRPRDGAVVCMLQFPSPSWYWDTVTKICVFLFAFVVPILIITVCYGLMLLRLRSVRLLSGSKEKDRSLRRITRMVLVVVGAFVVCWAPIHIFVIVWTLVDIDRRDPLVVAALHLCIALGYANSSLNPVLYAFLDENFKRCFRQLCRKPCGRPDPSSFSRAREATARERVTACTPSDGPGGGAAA

Structure (SMILES)	Ki [1] [nM]	Ki mu/Ki delta (human mu opioid receptor)
COc1ccc2c3c1O[C@H]1c4[nH]c(C(=O)N5C(C)(C)CCCC5(C)C)c(C)c4C[C@H]4[C@@H](C2)N(C)CC[C@]314 [Example 1]	0.3	267
COc1ccc2c3c1O[C@H]1c4[nH]c(C(=O)N5CCC(C(=O)c6ccccc6)CC5)c(C)c4C[C@H]4[C@@H](C2)N(C)CC[C@]314 [Example 6]	1.4	220
